{"source": "paper PMC10630452", "about": "“The tumor-enriched small molecule gambogic amide suppresses glioma by targeting WDR1-dependent cytoskeleton remodeling” (Signal Transduction and Targeted Therapy, 2023)", "key": {"[1]": {"assay": "BBB permeability assay in U87MG-SLC intracranial xenograft mice", "assay_type": "in vivo, mouse", "conditions": "nude, mouse, in vivo, iv, 10 mg/kg", "method": "(§1) Fig. 2 The BBB permeability and tumor suppressor ability of GA-amide compared with TMZ. GA-amide (a) or TMZ (b) concentration in the tumor area and normal brain tissue following a single injection of GA-amide (10 mg/kg, i.v.) or TMZ (10 mg/kg, i.v.). The data are presented as the means ± SEMs (n = 3). c Western blot analysis of the expression of TrkA in mouse tumor tissues (T) and normal brain tissues (N), n = 4. d Western blot analysis of glycosylated TrkA expression in human normal brain tissues (N) and glioma tissues of different grades. e Time curve of GA-amide and TMZ treatment in a cell viability assay (MTS) in T2-4, GSC2 and T12-1 cells. f–h A PDX mouse model was established, and the mice were treated with vehicle (control, n = 9), 2 mg/kg GA-amide (n = 9), 2 mg/kg GAC (n = 9) or […] TMZ (n = 8) by i.p. injection daily for 10 days. A summary photograph is presented in (f), statistical results in (g) and the body weights of mice in (h); the mean ± SEMs are shown. n.s: P ≥ 0.05, *P < 0.05, **P < 0.01 and ***P < 0.001 compared with the control group by one-way ANOVA at each time point\nMice bearing U87MG-SLC cell intracranial xenografts were injected with GA-amide (i.v.), and tissues from the brain tumor area and normal brain tissues were collected at different times after injection. […] The diagnostic product ions for GA-amide were detected at m/z 628.3/572.2."}, "[2]": {"test_system": "intracranial orthotopic glioma PDX", "assay": "Intracranial orthotopic PDX model (GBM2)", "assay_type": "in vivo, NSG mice", "conditions": "1 mg/kg i.v. daily for 10 days", "method": "Fig. 3 The inhibitory effects of GA-amide in glioma stem cell-derived mouse models and transgenic mouse models. a, b GSC2 cells were implanted s.c. into nude mice. Mice were treated with control (DMSO) (n = 7) or GA-amide (2 mg/kg) (n = 8) via i.p. injection once daily for 11 days, after which a photograph (a) was taken to show the tumor volume, and the tumor volume was calculated by a modified ellipsoid formula in (b). c, d GSC2 cells were implanted intracranially into nude mice. Mice were injected i.v. with control (n = 8) or 1 mg/kg GA-amide (n = 8) daily for 13 days, the Mantel‒Cox log–rank test was used for analysis, and the relative survival curves are shown in (c). The body weights are shown in (d). e In vivo efficacy studies of GA-amide using transgenic mouse models. Glioma was induced in transgenic C57BL/6 mice by injection of pTomo-Ras-sip53 lentivirus, and the strategy is shown. f, g MRI analysis was used to group mice into the control (n = 7) and GA-amide-treated groups (n = 8) before treatment. […]\nFor the intracranial PDX model, the tumor tissue (GBM2) will be mechanically minced using scissors and then […] NSG mice (Male, 6–8 weeks). […] After 7 days of tumor development, the mice were grouped dependent on the tumor size measured by MRI. […] After treatment, the tumor size was measured by MRI again."}, "[3]": {"assay": "Acute toxicity assay, blood routine examination", "assay_type": "in vivo, mice", "conditions": "for #Retic (Reticulocyte) / CH (corpuscular hemoglobin) / CHCM (Cellular Hemoglobin Concentration Mean) / CHDW (Cell hemoglobin distribution width) / HCT (Hematocrit) / HDW (Hemoglobin Distribution Width) / HGB (Hemoglobin) / MCH (Mean Corpuscular Hemoglobin) / MCHC (Mean corpuscular hemoglobin concentration) / MCV (Mean Corpuscular Volume) / MPV (Mean platelet volume) / PCT (Plateletocrit) / PDW (Platelet distribution width) / PLT (Platelet) / RBC (Red Blood Cell) / RDW (red blood cell volume distribution width) / WBC (White Blood Cell): mice"}, "[4]": {"test_system": "TMZ-resistant cells (T2-4, GSC2 and T12-1)", "assay": "Time curve cell viability assay (MTS)", "assay_type": "cell-based", "conditions": "PDCs and GSCs", "method": "as §1"}}, "data": [{"smiles": "CC(C)=CCC[C@]1(C)C=Cc2c(O)c3c(c(CC=C(C)C)c2O1)O[C@]12C(=C[C@@H]4CC1C(C)(C)O[C@@]2(C/C=C(/C)C(N)=O)C4=O)C3=O", "note": "[GA-amide, gambogic amide]", "values": [{"measurement": "Tmax", "setting": "[1]", "result": 2, "unit": "min"}, {"measurement": "tumor volume by MRI versus control", "setting": "[2]", "result": "significantly smaller compared to the control mice"}, {"measurement": "routine blood parameters and serum biochemical analytes versus control", "setting": "[3]; 1 mg/kg and 10 mg/kg, one-time i.v., ALT and Cl fluctuated", "result": "no significant differences in routine blood parameters and most analytes evaluated in biochemical analysis of mouse serum"}, {"measurement": "#Retic (Reticulocyte)", "setting": "[3]; 1mg/kg one-time i.v.", "result": "335.1±72.9 ×109cells/L"}, {"measurement": "CH (corpuscular hemoglobin)", "setting": "[3]; 1mg/kg one-time i.v.", "result": "16.8 ± 0.5", "unit": "pg"}, {"measurement": "CHCM (Cellular Hemoglobin Concentration Mean)", "setting": "[3]; 1mg/kg one-time i.v.", "result": "35.7 ± 0.8", "unit": "g/dL"}, {"measurement": "CHDW (Cell hemoglobin distribution width)", "setting": "[3]; 1mg/kg one-time i.v.", "result": "3.00±0.39", "unit": "%"}, {"measurement": "HCT (Hematocrit)", "setting": "[3]; 1mg/kg one-time i.v.", "result": "42.8±7.5", "unit": "%"}, {"measurement": "HDW (Hemoglobin Distribution Width)", "setting": "[3]; 1mg/kg one-time i.v.", "result": "2.66 ± 0.20", "unit": "g/dL"}, {"measurement": "HGB (Hemoglobin)", "setting": "[3]; 1mg/kg one-time i.v.", "result": "13.0 ± 0.7", "unit": "g/dL"}, {"measurement": "MCH (Mean Corpuscular Hemoglobin)", "setting": "[3]; 1mg/kg one-time i.v.", "result": "14.5 ± 1.7", "unit": "pg"}, {"measurement": "MCHC (Mean corpuscular hemoglobin concentration)", "setting": "[3]; 1mg/kg one-time i.v.", "result": "31.0 ± 3.9", "unit": "g/dL"}, {"measurement": "MCV (Mean Corpuscular Volume)", "setting": "[3]; 1mg/kg one-time i.v.", "result": "47.0 ± 1.8", "unit": "fL"}, {"measurement": "MPV (Mean platelet volume)", "setting": "[3]; 1mg/kg one-time i.v.", "result": "8.3 ± 0.3", "unit": "fL"}, {"measurement": "PCT (Plateletocrit)", "setting": "[3]; 1mg/kg one-time i.v.", "result": "1.33±0.30", "unit": "%"}, {"measurement": "PDW (Platelet distribution width)", "setting": "[3]; 1mg/kg one-time i.v.", "result": "48.8±2.5", "unit": "%"}, {"measurement": "PLT (Platelet)", "setting": "[3]; 1mg/kg one-time i.v.", "result": "1603±310 ×103cells/μL"}, {"measurement": "RBC (Red Blood Cell)", "setting": "[3]; 1mg/kg one-time i.v.", "result": "9.09±1.40 ×106cells/μL"}, {"measurement": "RDW (red blood cell volume distribution width)", "setting": "[3]; 1mg/kg one-time i.v.", "result": "16.5±1.2", "unit": "%"}, {"measurement": "WBC (White Blood Cell)", "setting": "[3]; 1mg/kg one-time i.v.", "result": "4.78±1.34 ×103cells/μL"}, {"measurement": "#Retic (Reticulocyte)", "setting": "[3]; 10mg/kg one-time i.v.", "result": "836.7±674.4 ×109cells/L"}, {"measurement": "CH (corpuscular hemoglobin)", "setting": "[3]; 10mg/kg one-time i.v.", "result": "17.0 ± 0.5", "unit": "pg"}, {"measurement": "CHCM (Cellular Hemoglobin Concentration Mean)", "setting": "[3]; 10mg/kg one-time i.v.", "result": "35.4 ± 1.3", "unit": "g/dL"}, {"measurement": "CHDW (Cell hemoglobin distribution width)", "setting": "[3]; 10mg/kg one-time i.v.", "result": "3.15±0.11", "unit": "%"}, {"measurement": "HCT (Hematocrit)", "setting": "[3]; 10mg/kg one-time i.v.", "result": "48.5±5.1", "unit": "%"}, {"measurement": "HDW (Hemoglobin Distribution Width)", "setting": "[3]; 10mg/kg one-time i.v.", "result": "2.71 ± 0.10", "unit": "g/dL"}, {"measurement": "HGB (Hemoglobin)", "setting": "[3]; 10mg/kg one-time i.v.", "result": "13.6 ± 0.5", "unit": "g/dL"}, {"measurement": "MCH (Mean Corpuscular Hemoglobin)", "setting": "[3]; 10mg/kg one-time i.v.", "result": "13.6 ± 1.8", "unit": "pg"}, {"measurement": "MCHC (Mean corpuscular hemoglobin concentration)", "setting": "[3]; 10mg/kg one-time i.v.", "result": "28.4 ± 3.8", "unit": "g/dL"}, {"measurement": "MCV (Mean Corpuscular Volume)", "setting": "[3]; 10mg/kg one-time i.v.", "result": "47.8 ± 1.1", "unit": "fL"}, {"measurement": "MPV (Mean platelet volume)", "setting": "[3]; 10mg/kg one-time i.v.", "result": "8.4 ± 0.2", "unit": "fL"}, {"measurement": "PCT (Plateletocrit)", "setting": "[3]; 10mg/kg one-time i.v.", "result": "1.63±0.60", "unit": "%"}, {"measurement": "PDW (Platelet distribution width)", "setting": "[3]; 10mg/kg one-time i.v.", "result": "49.9±2.3", "unit": "%"}, {"measurement": "PLT (Platelet)", "setting": "[3]; 10mg/kg one-time i.v.", "result": "1936±670 ×103cells/μL"}, {"measurement": "RBC (Red Blood Cell)", "setting": "[3]; 10mg/kg one-time i.v.", "result": "10.13±1.05 ×106cells/μL"}, {"measurement": "RDW (red blood cell volume distribution width)", "setting": "[3]; 10mg/kg one-time i.v.", "result": "17.0±0.6", "unit": "%"}, {"measurement": "WBC (White Blood Cell)", "setting": "[3]; 10mg/kg one-time i.v.", "result": "4.38±0.95 ×103cells/μL"}, {"measurement": "viability of TMZ-resistant cells over time", "setting": "[4]", "result": "effectively reduced the viability of TMZ-resistant cells"}]}]}
